Results published in patent US4820694A, “Modifications of 3-O-demethylmycinose in macrocin and lactenocin” (priority 1986, dated 1989).
Values after ≈ are worked out from the molar mass of the structure shown. Where two headings read alike, the source gives them in different places.

What was measured:
[1] = system: Streptococcus pyogenes C203; assay: protection of mice experimentally infected with S. pyogenes C203; format: in vivo; details: mice, mg/kg × 2, doses given 1 and 4 hours postinfection, read-out: ED50
Experimental: The formula 1 compounds have shown in vivo antimicrobial activity against experimentally-induced infections in laboratory animals. When two doses of test compound were administered to mice experimentally infected with S. pyrogenes C203, the activity observed was measured as an ED50 value [effective dose in mg/kg to protect 50% of the test animals: see Warren Wick, et al., J. Bacteriol. 81, 233-235 (1961)].
^a mg/kg × 2; doses given 1 and 4 hours postinfection

Mycoplasma hyorhinis 29E = assay: broth-dilution microtiter MIC test; format: cell-based; details: Mycoplasma, 29E
Experimental: (§1) The MIC's in Table III were determined by standard agar-dilution assays. The MIC's in Table IV were obtained using conventional brothdilution microtiter tests.

[2] = system: Pasteurella hemolytica 41D; assay: broth-dilution microtiter MIC test; format: cell-based; details: Pasteurella, 41D; broth-dilution microtiter; read-out: MIC
Experimental: as §1

[3] = system: Pasteurella multocida 60A; assay: broth-dilution microtiter MIC test; format: cell-based; details: Pasteurella multocida, 60A; broth-dilution microtiter; Avian isolate; read-out: MIC
Experimental: as §1

Streptococcus sp. 19F = assay: broth-dilution microtiter MIC test; format: cell-based; details: Streptococcus, SP.19F
Experimental: as §1

[4] = system: Bordetella bronchiseptica; assay: broth-dilution microtiter MIC test; format: cell-based; details: Bordetella bronchiseptica; broth-dilution microtiter; read-out: MIC
Experimental: as §1

[5] = system: Mycoplasma gallisepticum 29C; assay: broth-dilution microtiter MIC test; format: cell-based; details: Mycoplasmoides gallisepticum, 29C
Experimental: as §1

[6] = system: Pasteurella hemolytica 23C; assay: broth-dilution microtiter MIC test; format: cell-based; details: Pasteurella, 23C; broth-dilution microtiter; read-out: MIC
Experimental: as §1

Mycoplasma synoviae 40A = assay: broth-dilution microtiter MIC test; format: cell-based; details: Mycoplasmopsis synoviae, 40A
Experimental: as §1

[7] = system: Pasteurella multocida 40G; assay: broth-dilution microtiter MIC test; format: cell-based; details: Pasteurella multocida, 40G; broth-dilution microtiter; read-out: MIC
Experimental: as §1

[8] = system: Staphylococcus aureus 19C; assay: broth-dilution microtiter MIC test; format: cell-based; details: Staphylococcus aureus, 19C
Experimental: as §1

[9] = system: Pasteurella multocida 68C; assay: broth-dilution microtiter MIC test; format: cell-based; details: Pasteurella multocida, 68C; broth-dilution microtiter; read-out: MIC
Experimental: as §1

[10] = system: Mycoplasma gallisepticum 36H; assay: broth-dilution microtiter MIC test; format: cell-based; details: Mycoplasmoides gallisepticum, 36H
Experimental: as §1

[11] = system: Mycoplasma gallisepticum 15E; assay: broth-dilution microtiter MIC test; format: cell-based; details: Mycoplasmoides gallisepticum, 15E
Experimental: as §1

[12] = system: Pasteurella multocida 17E; assay: broth-dilution microtiter MIC test; format: cell-based; details: Pasteurella multocida, 17E; broth-dilution microtiter; Bovine isolate; read-out: MIC
Experimental: as §1

[13] = system: Pasteurella multocida 22A; assay: broth-dilution microtiter MIC test; format: cell-based; details: Pasteurella multocida, 22A; broth-dilution microtiter; read-out: MIC
Experimental: as §1

[14] = system: Pasteurella hemolytica 22C; assay: broth-dilution microtiter MIC test; format: cell-based; details: Pasteurella, 22C; broth-dilution microtiter; read-out: MIC
Experimental: as §1

Escherichia coli EC14 = assay: standard agar-dilution MIC assay; format: cell-based; details: agar-dilution, read-out: MIC
Experimental: as §1

[15] = system: Streptococcus Group D 9960; assay: standard agar-dilution MIC assay; format: cell-based; details: GROUPD9960, read-out: MIC
Experimental: as §1

[16] = system: Staphylococcus aureus V41; assay: standard agar-dilution MIC assay; format: cell-based; details: Staphylococcus aureus, V41
Experimental: as §1

[17] = system: Staphylococcus aureus X400; assay: standard agar-dilution MIC assay; format: cell-based; details: Staphylococcus aureus, X400
Experimental: as §1

[18] = system: Staphylococcus aureus X1.1; assay: standard agar-dilution MIC assay; format: cell-based; details: Staphylococcus aureus, X1.1
Experimental: as §1

[19] = system: Staphylococcus epidermidis EP12; assay: standard agar-dilution MIC assay; format: cell-based
Experimental: as §1

[20] = system: Klebsiella pneumoniae X68; assay: standard agar-dilution MIC assay; format: cell-based; details: Klebsiella pneumoniae, X68; agar-dilution; read-out: MIC
Experimental: as §1

[21] = system: Haemophilus influenzae 76; assay: standard agar-dilution MIC assay; format: cell-based; details: Haemophilus influenzae, 76; agar-dilution; Ampicillin-resistant strain; read-out: MIC
Experimental: as §1

[22] = system: Haemophilus influenzae C.L.; assay: standard agar-dilution MIC assay; format: cell-based; details: Haemophilus influenzae; agar-dilution; Ampicillin-sensitive strain; read-out: MIC
Experimental: as §1

[23] = system: Pseudomonas aeruginosa X239; assay: standard agar-dilution MIC assay; format: cell-based; details: Pseudomonas aeruginosa, X239; agar-dilution; read-out: MIC
Experimental: as §1

[24] = system: Streptococcus Group D X66; assay: standard agar-dilution MIC assay; format: cell-based; details: read-out: MIC
Experimental: as §1

[25] = system: Staphylococcus epidermidis EPI1; assay: standard agar-dilution MIC assay; format: cell-based; details: Staphylococcus epidermidis, EPI1
Experimental: as §1

[26] = system: Streptococcus pyogenes C203; assay: standard agar-dilution MIC assay; format: cell-based; details: Streptococcus pyogenes, C203
Experimental: as §1

[27] = system: Staphylococcus aureus S13E; assay: microbe, parasite or virus in culture; format: cell-based; details: Staphylococcus aureus, S13E
Experimental: as §1

[28] = system: Streptococcus pneumoniae Park I; assay: microbe, parasite or virus in culture; format: cell-based; details: Streptococcus pneumoniae
Experimental: as §1

[29] = broth-dilution microtiter, read-out: MIC

SMILES | MIC (Mycoplasma hyorhinis 29E) [µg/mL] | MIC [2] [µg/mL] | MIC [3] [µg/mL] | MIC (Streptococcus sp. 19F) [µg/mL] | MIC [4] [µg/mL] | MIC [5] [µg/mL] | MIC [6] [µg/mL] | MIC [7] [µg/mL] | MIC [9] [µg/mL] | MIC [12] [µg/mL] | MIC [13] [µg/mL] | MIC [14] [µg/mL] | MIC (Escherichia coli EC14) [µg/mL] | MIC [15] [µg/mL] | MIC [17] [µg/mL] | MIC [20] [µg/mL] | MIC [21] [µg/mL] | MIC [22] [µg/mL] | MIC [23] [µg/mL] | MIC [24] [µg/mL] | other results
CCC1OC(=O)CC(O)C(C)C(OC2OC(C)C(OC3CC(C)(O)C(O)C(C)O3)C(N(C)C)C2OC(C)=O)C(CC=O)CC(C)C(=O)C=CC(C)=CC1COC1OC(C)C(OC(=O)CC(C)C)C(OC(=O)CC(C)C)C1OC (stereo not shown) [Compound 7, 2'-O-ACETYL-3'",4'"-di-O-isovaleryl-macrocin] | 6.25 (≈ 5.62 µM) | > 50 | > 50 | 3.12 (≈ 2.8 µM) | > 50 | 3.12 (≈ 2.8 µM) | > 50 | > 50 | > 50 | > 50 | > 50 | > 50 | > 128 | 8 (≈ 7.19 µM) | 16 (≈ 14.4 µM) | > 128 | > 128 | > 128 | > 128 | 16 (≈ 14.4 µM) | ED50 ([1]; C203, Oral): 71.4 mg/kg; ED50 ([1]; C203, sc, Subcutaneous): > 10 mg/kg; MIC (Mycoplasma synoviae 40A): 3.12 µg/mL (≈ 2.8 µM); MIC [8]: 12.5 µg/mL (≈ 11.2 µM); MIC [10]: 50 µg/mL (≈ 44.9 µM); MIC [11]: 12.5 µg/mL (≈ 11.2 µM); MIC [16]: 8 µg/mL (≈ 7.19 µM); MIC [18]: 8 µg/mL (≈ 7.19 µM); MIC [19]: 8 µg/mL (≈ 7.19 µM); MIC [25]: 8 µg/mL (≈ 7.19 µM); MIC [26]: 4 µg/mL (≈ 3.6 µM); MIC [27]: 8 µg/mL (≈ 7.19 µM); MIC [28]: 2 µg/mL (≈ 1.8 µM)
CCC1OC(=O)CC(O)C(C)C(OC2OC(C)C(OC3CC(C)(O)C(O)C(C)O3)C(N(C)C)C2OC(C)=O)C(CC=O)CC(C)C(=O)C=CC(C)=CC1COC1OC(C)C(OC(C)=O)C(OC(C)=O)C1OC (stereo not shown) [Compound 3, 2',3'",4'"-Tri-O-acetyl-macrocin] | 25 (≈ 24.3 µM) | > 50 | > 50 | 3.12 (≈ 3.03 µM) | > 50 | 3.12 (≈ 3.03 µM) | > 50 | > 50 | > 50 | > 50 | > 50 | > 50 | > 128 | 4 (≈ 3.89 µM) | 4 (≈ 3.89 µM) | > 128 | 2 (≈ 1.95 µM) | > 128 | > 128 | 8 (≈ 7.78 µM) | MIC (Mycoplasma synoviae 40A; [29]): 12.5 µg/mL (≈ 12.2 µM); MIC [8, 29]: 6.25 µg/mL (≈ 6.08 µM); MIC [10, 29]: > 50 µg/mL; MIC [11, 29]: > 50 µg/mL; MIC ([16]; agar-dilution, Penicillin-resistant strain, read-out: MIC): 2 µg/mL (≈ 1.95 µM); MIC ([18]; agar-dilution, read-out: MIC): 2 µg/mL (≈ 1.95 µM); MIC ([19]; agar-dilution, read-out: MIC): 2 µg/mL (≈ 1.95 µM); MIC ([25]; agar-dilution, read-out: MIC): 2 µg/mL (≈ 1.95 µM); MIC ([26]; agar-dilution, read-out: MIC): 1 µg/mL (≈ 0.973 µM); MIC [27]: 4 µg/mL (≈ 3.89 µM); MIC ([28]; agar-dilution, read-out: MIC): 1 µg/mL (≈ 0.973 µM)
